The text below walks through data of patent publication US4657911A, “3-amino quinuclidine derivatives and the application thereof as accelerators of gastro-intestinal motor function” (Delalande S.A., priority 1982, dated 1987).

Molecules are shown by their SMILES. Where a name gives a salt, the structure may show the parent alone. Read-outs that look alike come from different tables or passages of the source.

The nature of data set [1]: acute toxicity in mice, method of MILLER and TAINTER. The conditions noted are these: mouse, in vivo, ip. As to the method: In addition, the acute toxicity in mice was evaluated according to the method of MILLER and TAINTER described in Proc. Soc. Exp. Biol. Med. 57 261 (1944).
A further data set has as its system total transit. The data set is described as follows: total transit test in rats. Type of data set: in vivo. The conditions noted are these: Rattus norvegicus, po, read-out: % animals having completely evacuated the balls after 24 hours; for responders at 10 mg/kg: dose 10 mg/kg p.o. As to the method: by the total transit test in rats, carried out according to the following method: The compounds of the invention were administered orally simultaneously with 20 steel balls to wakeful rats having eaten nothing for 20 hours. The fast was broken immediately after the administration and the compounds of the invention were administered a second time at the same dose after a period of 7 hours. The total transit was evaluated 24 hours after the first administration of the compounds to be tested by the percentage of the animals having evacuated all the balls in the faeces, the balls being counted by radiological examination.

Another data set concerns gastric evacuation. The data set is described as follows: gastric evacuation test on rats. It counts as in vivo. The following applies: rats fasted 20 hours, 20 steel balls. As to the method:
by the gastric evacuation test on rats, carried out with the following method: The compounds of the invention are administered orally together with 20 steel balls to wakeful rats having eaten nothing for 20 hours. The action on the gastric evacuation of the tested compounds was evaluated 90 minutes after administration thereof by the percentage of animals whose stomach contained no balls, these balls being counted by radiological examination.

The mark [2] stands for this setting: rats, second administration at same dose after 7 hours, 24 hours.
Setting [3] is: rats, dose 1 mg/kg p.o., second administration at same dose after 7 hours, 24 hours.

A word on the LD50: it is the dose expected to kill half of the subjects tested. `COc1nc(N)ncc1C(=O)NC1CN2CCC1CC2` (stereo not shown) [Code number 1] came in with a median lethal dose (LD50) in data set [1] (Table III) of 300 mg/kg. Also, in the data set on total transit (setting [2]), the responders at 10 mg/kg turned out to be 50%.
`COc1cc(N)c(Cl)cc1C(=O)NC1CN2CCC1CC2` (stereo not shown) [Code number 2, N-(3-quinuclidinyl)4-amino 5-chloro 2-methoxy benzamide, maleate] showed an LD50 in data set [1] (Table II) of 105 mg/kg. In addition, in the data set on total transit (setting [3]), the responders at 1 mg/kg was found to be 64%. The “% animals whose stomach contained no ball after 90 minutes” value in the data set with gastric evacuation (dose 5 mg/kg p.o.) turned out to be 75%; in the data set on gastric evacuation (dose 10 mg/kg p.o.), 100%.
In turn, `COc1cccc(C(=O)NC2CN3CCC2CC3)c1` (stereo not shown) [Code number 3] yielded a 50% lethal dose (LD50) in data set [1] (Table II) of 110 mg/kg. Further, the “% animals whose stomach contained no ball after 90 minutes” value with gastric evacuation (dose 2.5 mg/kg p.o.) turned out to be 100%.
`O=C(NC1CN2CCC1CC2)c1cccc(F)c1` (stereo not shown) [Code number 5, N-(3-quinuclidinyl)3-fluoro benzamide, oxalate] returned an LD50 in data set [1] (Table II) of 140 mg/kg. Also, the “% animals whose stomach contained no ball after 90 minutes” value in the data set on gastric evacuation (dose 2.5 mg/kg p.o.) was 100%.
`O=C(NC1CN2CCC1CC2)c1ccccc1F` (stereo not shown) [compound 6] gave an LD50 in data set [1] (Table III) of 150 mg/kg. Besides, in the data set on total transit (setting [2]), the responders at 10 mg/kg amounted to 55%.
On the same counts, the results for `COc1ccccc1C(=O)NC1CN2CCC1CC2` (stereo not shown) [compound 7] are 150 mg/kg and 50%.
Consider `COc1ccc(F)cc1C(=O)NC1CN2CCC1CC2` (stereo not shown) [compound 17], for which, in data set [1] (Table III), the LD50 was found to be 140 mg/kg. Moreover, the responders at 1 mg/kg with total transit (setting [3]) amounted to 57%.
`COc1ccc(Br)cc1C(=O)NC1CN2CCC1CC2` (stereo not shown) [compound 18] showed an LD50 in data set [1] (Table III) of 160 mg/kg. Besides, the responders at 1 mg/kg in the data set with total transit (24 h) came to 38%.
With `O=C(NC1CN2CCC1CC2)c1cccc(Cl)c1` (stereo not shown) [compound 20], in data set [1] (Table III), the LD50 was determined as 145 mg/kg. The responders at 1 mg/kg with total transit (setting [3]) worked out at 50%.
On the same counts, the results for `COc1cc(N)c(Cl)cc1C(=S)NC1CN2CCC1CC2` (stereo not shown) [compound 22] are 300 mg/kg and 63%.
For `COc1cc(NC(C)=O)c(Cl)cc1C(=O)N(C)C1CN2CCC1CC2` (stereo not shown) [compound 23], in that order: 50 mg/kg and 38%.
On to `COc1cc(N)c(Cl)cc1C(=O)N(C)C1CN2CCC1CC2` (stereo not shown) [compound 24], for which, in data set [1] (Table III), the 50% lethal dose (LD50) came to 70 mg/kg. In addition, the responders at 1 mg/kg in the data set with total transit (setting [3]) was 38%.
In the case of `COc1cc(N)c(Cl)cc1C(=S)N(C)C1CN2CCC1CC2` (stereo not shown) [compound 25], in data set [1] (Table III), the median lethal dose (LD50) came to 80 mg/kg. In the data set on total transit (setting [3]), the responders at 1 mg/kg amounted to 44%.
